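Each compound was tested at five concentrations against cells in 96-well plates for 48 hours. Here, GI50 denotes the concentration required for 50% inhibition of growth.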 Activity calls are given as the source filed them. Rule as the data show it: active = GI50 up to about 1.1 µM and inactive = higher.
What was measured:
Assay in all cases: NCI-60 cell line screen, 48 h
NCI-H460 = test system: NCI-H460
MDA-MB-435 = test system: MDA-MB-435
M14 = test system: M14
RPMI-8226 = test system: RPMI-8226
SN12C = test system: SN12C
U-251 = test system: U-251
SNB-19 = test system: SNB-19
SR = test system: SR
SK-MEL-28 = test system: SK-MEL-28
OVCAR-8 = test system: OVCAR-8
HOP-62 = test system: HOP-62
NCI-H226 = test system: NCI-H226
SW-620 = test system: SW-620
KM12 = test system: KM12
OVCAR-5 = test system: OVCAR-5
A498 = test system: A498
HT-29 = test system: HT-29
MDA-MB-231 = test system: MDA-MB-231
CAKI-1 = test system: CAKI-1
COLO 205 = test system: COLO 205
NCI/ADR-RES = test system: NCI/ADR-RES
786-0 = test system: 786-0
ACHN = test system: ACHN
UACC-257 = test system: UACC-257
DU-145 = test system: DU-145
OVCAR-4 = test system: OVCAR-4
SNB-75 = test system: SNB-75
UO-31 = test system: UO-31
HOP-92 = test system: HOP-92
BT-549 = test system: BT-549
SF-539 = test system: SF-539
K562 = test system: K562
SF-295 = test system: SF-295
MCF7 = test system: MCF7
HCT-15 = test system: HCT-15
Hs-578T = test system: Hs-578T
T47D = test system: T47D
CCRF-CEM = test system: CCRF-CEM
HL-60 = test system: HL-60
SK-MEL-2 = test system: SK-MEL-2
HCT-116 = test system: HCT-116
PC-3 = test system: PC-3
IGROV-1 = test system: IGROV-1
NCI-H23 = test system: NCI-H23
MDA-N = test system: MDA-N
RXF 393 = test system: RXF 393
SF-268 = test system: SF-268
MOLT-4 = test system: MOLT-4
SK-MEL-5 = test system: SK-MEL-5
Malme-3M = test system: Malme-3M
A549 = test system: A549
SK-OV-3 = test system: SK-OV-3
EKVX = test system: EKVX
OVCAR-3 = test system: OVCAR-3
UACC-62 = test system: UACC-62
HCC 2998 = test system: HCC 2998
NCI-H522 = test system: NCI-H522

CCOC(=O)c1ccc(NC(=O)O/N=C(/Cl)CC)cc1 was tested, and the GI50 (NCI-H460) was 19.5 µM (inactive), the GI50 (MDA-MB-435) was 17.7 µM (inactive) and the GI50 (M14) was 2.14 µM (inactive). The GI50 (RPMI-8226) was 1.99 µM (inactive), the GI50 (SN12C) was 19.9 µM (inactive) and the GI50 (U-251) was 17.8 µM (inactive). The GI50 (SNB-19) was 21.3 µM (inactive), the GI50 (SR) was 3.57 µM (inactive) and the GI50 (SK-MEL-28) was 16.4 µM (inactive). For the same molecule, the GI50 (OVCAR-8) was 14.9 µM (inactive), the GI50 (HOP-62) was 20.4 µM (inactive) and the GI50 (NCI-H226) was 20.9 µM (inactive). The GI50 (SW-620) was 1.87 µM (inactive), the GI50 (KM12) was 18.4 µM (inactive) and the GI50 (OVCAR-5) was 18.2 µM (inactive). For the same molecule, the GI50 (A498) was 15.7 µM (inactive), the GI50 (HT-29) was 18.4 µM (inactive) and the GI50 (MDA-MB-231) was 19.6 µM (inactive). The GI50 (CAKI-1) was 4.57 µM (inactive), the GI50 (COLO 205) was 2.41 µM (inactive) and the GI50 (NCI/ADR-RES) was 14 µM (inactive). For the same molecule, the GI50 (786-0) was 5.85 µM (inactive), the GI50 (ACHN) was 9.18 µM (inactive) and the GI50 (UACC-257) was 16.1 µM (inactive). For the same molecule, the GI50 (DU-145) was 17.4 µM (inactive), the GI50 (OVCAR-4) was 5.21 µM (inactive) and the GI50 (SNB-75) was 13.6 µM (inactive). The GI50 (UO-31) was 17.5 µM (inactive), the GI50 (HOP-92) was 2.75 µM (inactive) and the GI50 (BT-549) was 19.2 µM (inactive). For the same molecule, the GI50 (SF-539) was 17.6 µM (inactive), the GI50 (K562) was 1.94 µM (inactive) and the GI50 (SF-295) was 19.5 µM (inactive). The GI50 (MCF7) was 15 µM (inactive), the GI50 (HCT-15) was 13.5 µM and the GI50 (Hs-578T) was 22.8 µM (inactive). The GI50 (T47D) was 7.73 µM (inactive), the GI50 (CCRF-CEM) was 1.82 µM (inactive) and the GI50 (HL-60) was 2.21 µM (inactive). The GI50 (SK-MEL-2) was 16.4 µM (inactive), the GI50 (HCT-116) was 8.99 µM (inactive) and the GI50 (PC-3) was 18.8 µM (inactive). For the same molecule, the GI50 (IGROV-1) was 18.5 µM (inactive), the GI50 (NCI-H23) was 17.4 µM (inactive) and the GI50 (MDA-N) was 16.8 µM (inactive). The GI50 (RXF 393) was 16.9 µM (inactive), the GI50 (SF-268) was 19.2 µM (inactive) and the GI50 (MOLT-4) was 2 µM (inactive). For the same molecule, the GI50 (SK-MEL-5) was 16 µM (inactive), the GI50 (Malme-3M) was 4.56 µM (inactive) and the GI50 (A549) was 24.8 µM (inactive). The GI50 (SK-OV-3) was 17.9 µM (inactive), the GI50 (EKVX) was 16.1 µM (inactive) and the GI50 (OVCAR-3) was 1.83 µM (inactive). The GI50 (UACC-62) was 21 µM (inactive), the GI50 (HCC 2998) was 18.1 µM (inactive) and the GI50 (NCI-H522) was 2.77 µM (inactive).
